Values quoted from earlier work in patent publication US6964953B2, “Methods for treating stress disorders using glucocorticoid receptor-specific antagonists” (Corcept Therapeutics, Inc., priority 2001, dated 2005).

How the values were obtained:
[1] = biological target: T1, glucocorticoid (GR) receptor (Homo sapiens, UniProt P04150); settings: result in words
T1 sequence (P04150 1-777): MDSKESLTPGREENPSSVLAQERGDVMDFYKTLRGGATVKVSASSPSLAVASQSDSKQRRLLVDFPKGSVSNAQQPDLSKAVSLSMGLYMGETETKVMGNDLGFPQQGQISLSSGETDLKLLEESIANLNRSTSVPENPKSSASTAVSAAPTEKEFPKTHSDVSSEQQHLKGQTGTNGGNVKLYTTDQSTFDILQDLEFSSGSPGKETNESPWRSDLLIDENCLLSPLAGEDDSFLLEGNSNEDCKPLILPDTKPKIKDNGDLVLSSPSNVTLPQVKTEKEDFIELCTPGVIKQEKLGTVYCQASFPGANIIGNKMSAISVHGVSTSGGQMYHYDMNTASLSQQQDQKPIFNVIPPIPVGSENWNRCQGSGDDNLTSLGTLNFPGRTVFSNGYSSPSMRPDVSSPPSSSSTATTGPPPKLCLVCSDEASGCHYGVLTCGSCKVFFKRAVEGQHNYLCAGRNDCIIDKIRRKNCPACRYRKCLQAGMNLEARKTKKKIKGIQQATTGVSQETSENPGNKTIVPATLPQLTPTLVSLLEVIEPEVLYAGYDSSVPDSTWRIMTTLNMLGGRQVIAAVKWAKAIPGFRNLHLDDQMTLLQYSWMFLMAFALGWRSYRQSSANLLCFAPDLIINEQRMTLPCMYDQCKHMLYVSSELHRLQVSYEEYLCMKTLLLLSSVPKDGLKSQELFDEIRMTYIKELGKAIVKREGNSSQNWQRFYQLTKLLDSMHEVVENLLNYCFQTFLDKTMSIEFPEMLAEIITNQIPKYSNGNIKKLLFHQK

[2] = in one study; Kawai (1989)
[3] = system: rat hippocampus; settings: Talmi et al. 1996
[4] = system: mouse hippocampus neuronal cells; settings: Behl et al. 1997
[5] = biological target: T2, progesterone receptor (Homo sapiens, UniProt P06401); settings: result in words
T2 sequence (P06401 1-933): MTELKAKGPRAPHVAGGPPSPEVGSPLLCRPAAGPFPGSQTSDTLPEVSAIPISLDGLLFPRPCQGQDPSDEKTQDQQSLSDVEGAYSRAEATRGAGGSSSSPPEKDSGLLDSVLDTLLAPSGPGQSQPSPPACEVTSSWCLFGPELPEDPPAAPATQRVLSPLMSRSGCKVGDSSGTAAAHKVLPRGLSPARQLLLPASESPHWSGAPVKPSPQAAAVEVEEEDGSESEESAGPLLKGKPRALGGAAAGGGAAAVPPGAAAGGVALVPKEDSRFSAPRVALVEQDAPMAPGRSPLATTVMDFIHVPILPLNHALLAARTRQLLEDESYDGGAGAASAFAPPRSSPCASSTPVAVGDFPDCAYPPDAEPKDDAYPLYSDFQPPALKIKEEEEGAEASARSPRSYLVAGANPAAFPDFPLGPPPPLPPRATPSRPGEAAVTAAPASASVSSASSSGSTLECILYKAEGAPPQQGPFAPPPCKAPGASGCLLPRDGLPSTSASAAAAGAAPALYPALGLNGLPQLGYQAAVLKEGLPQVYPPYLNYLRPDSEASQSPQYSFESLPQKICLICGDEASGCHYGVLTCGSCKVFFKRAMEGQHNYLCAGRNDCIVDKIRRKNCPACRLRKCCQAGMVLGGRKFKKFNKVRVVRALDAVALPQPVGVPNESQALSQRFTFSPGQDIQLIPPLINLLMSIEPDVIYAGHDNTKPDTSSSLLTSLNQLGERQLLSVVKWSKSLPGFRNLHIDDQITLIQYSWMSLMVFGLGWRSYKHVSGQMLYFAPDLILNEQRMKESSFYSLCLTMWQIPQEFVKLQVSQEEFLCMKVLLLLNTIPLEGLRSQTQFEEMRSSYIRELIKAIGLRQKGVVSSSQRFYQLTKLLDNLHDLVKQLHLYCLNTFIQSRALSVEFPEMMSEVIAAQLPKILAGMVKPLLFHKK

SMILES | GR antagonist activity [1] | daily dose excreted in the urine [2] | abrogation of age-associated electrophysiological changes [3] | protection against oxidative stress-induced neuronal cell death [4] | progesterone receptor antagonist activity [5]
CC#C[C@]1(O)CC[C@H]2[C@@H]3CCC4=CC(=O)CCC4=C3[C@@H](c3ccc(OCCN(C)C)cc3)C[C@@]21C [RU009, 11-beta-(4-dimethyl-aminoethoxyphenyl)-17-alpha-(propynyl-17 beta-hydroxy-4,9-estradien-3-one)] | shown to have GR antagonist effects | – | – | – | –
CC#C[C@]1(O)CC[C@H]2[C@@H]3CCC4=CC(=O)CCC4=C3[C@@H](c3ccc(N(C)C)cc3)C[C@@]21C [Mifepristone, 17-beta-hydroxy-11-beta-(4-dimethyl-aminophenyl)-17-alpha-(1-propynyl)-estra-4,9-dien-3-one] | powerful antagonist | less than 0.5% | effective at abrogating some of the age-associated electrophysiological changes | providing protection against oxidative stress-induced neuronal cell death | powerful antagonist
